Test results taken from patent publication US11498928B2, “Macrocyclic spiroethers as Mcl-1 inhibitors” (ASCENTAGE PHARMA (SUZHOU) CO., LTD., priority 2019, dated 2022).
Like-named read-outs stand apart in the source and are kept apart here.

Tests used:
[1] = test system: NCI-H929 cells; assay: Cell viability assay (NCI-H929 cells), CCK-8; assay type: cell-based; conditions: 5% FBS
Experimental: NCI-H929 cells were obtained from American Type Culture Collection (ATCC). Cells were maintained in the recommended culture medium (RPMI 1640) with 10% FBS and 0.05 mM BME at 37° C. and an atmosphere of 5% CO2.
The effect of Compounds on cell viability was determined using Cell Counting Kit-8 (CCK-8) assay according to the manufacturer's instructions. 95 μL of NCI-H929 cell suspension (20000 cells/well) in culture medium were seeded into 96-well plates and cultured 4 hrs. Each tested compound was serially diluted in DMSO, then 5 μL of the compound or DMSO was diluted in 95 μL medium once more. At last, 5 μL of the compound dilution was added to the corresponding well of the cell plate. After the addition of the tested compound, the cells were incubated at 37° C. in an atmosphere of 5% CO2 for 24 hrs. At the end, 10 μL of CCK-8 solution was added to each well of the plate and incubated for 1-4 hours. The plates were read at 450 nm on the microplate reader (BioTek Synergy 1MF). The readings were normalized to the vehicle cells, and the IC50 was calculated by nonlinear regression analysis using GraphPad Prism 6 software. Cell Viability Assay (OPM-2 cells)

[2] = target: T1, Mcl-1 protein (residues 171-323) (Homo sapiens, UniProt Q07820); assay: Inhibition of Mcl-1 by fluorescence polarization (FP) competitive binding assay with FAM-Bid tracer; conditions: 2 nM FAM-Bid, 20 nM Mcl-1, 30 min
T1 construct: Tag-free Mcl-1 protein (residues 171-323) was used in the FP assay
T1 sequence (Q07820 171-323): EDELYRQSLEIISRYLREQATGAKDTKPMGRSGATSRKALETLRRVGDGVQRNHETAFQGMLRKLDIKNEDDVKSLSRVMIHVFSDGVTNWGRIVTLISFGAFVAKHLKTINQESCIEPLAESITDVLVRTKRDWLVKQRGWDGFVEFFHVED
Experimental: Inhibition of Mcl-1 by Fluorescence Polarization (FP) Assay.
The relative binding potency of representative Compounds of the Disclosure was determined by a fluorescence polarization (FP) assay (Long et al, BMC Biotechnology 13:45 (2013)). The method used a fluorescein labelled peptide (FAM-Bid) which binds to the Mcl-1 protein leading to an increased anisotropy measured in milli-polarization (mP) values using a plate reader. […] Tag-free Mcl-1 protein (residues 171-323) was used in the FP assay (Mady et al, Scientific Reports 8: 10210-10210 (2018); Yang et al, ACS Med. Chem. Lett. 3:308-312 (2012)).
A 10-points serial dilution of each compound was prepared in DMSO and 5 μL solution was transferred into flat bottomed, 96-well back plate (final DMSO concentration 5%). 120 μL of Buffer (PBS, 0.01% BGG (Sigma Cat. #SRE0011), 0.01% Triton X-100), containing the Fluorescein labelled peptide (Final concentration 2 nM) and Mcl-1 protein (final concentration 20 nM) was then added. Assay plates were incubated 30 mins at room temperature with gentle shaking before FP was measured on a Biotek Synergy 1MF reader (Ex. 485 nm, Em. 528 nm, Cut off 510 nm) and mP calculated. The binding of increasing doses of test compounds was expressed as a percentage reduction in mP compared to a window established between 5% DMSO only and 100% inhibition controls (no Mcl-1 protein). 10-points dose response curves were plotted with GraphPad software using Sigmoidal Dose-Response Model and the IC50 values were determined by nonlinear regression fitting of the competition curves. Cell Viability Assay (NCI-H929 cells)

[3] = test system: OPM-2 cells; assay: Cell viability assay (OPM-2 cells), CCK-8; assay type: cell-based; conditions: 5% FBS
Experimental: OPM-2 cells were obtained from Deutsche Sammlung von Mikroorganismen and Zellkulturen GmbH (DSMZ). Cells were maintained in the recommended culture medium with 10% FBS at 37° C. and an atmosphere of 5% CO2.
The effect of representative Compounds of the Disclosure on cell viability was determined using Cell Counting Kit-8 (CCK-8) assay (Shanghai Life iLab Bio Technology) according to the manufacturer's instructions. Each tested compound was serially diluted in culture medium, 100 μL of the compound dilution was added into 96-well plates. 100 μL of an OPM-2 cell suspension (20000 cells/well) in culture medium were seeded into the corresponding well of the plate and the cells were incubated at 37° C. in an atmosphere of 5% CO2 for 24 hours. In the next day, 20 μL of CCK-8 solution was added to each well of the plate and incubated for 4 hours.
The plates were read at 450 nm on the microplate spectrophotometer (SpectraMax plus 384, Molecular devices). The readings were normalized to the vehicle cells, and the IC50 was calculated by nonlinear regression analysis using GraphPad Prism 6 software.

[4] = Pharmacokinetic studies in mice (IV and PO); assay type: in vivo; conditions: for MRT last: read-out: MRT0-last
Experimental: Administration: Mice in the IV group was dosed at 2 mg/kg (20% PEG 400+10% Cremophor EL+70% PBS 7.4) via tail vein injection (N=9). Mice in the PO group was dosed at 10 mg/kg (20% PEG 400+10% Cremophor EL+70% PBS 7.4) via oral gavage (N=9). All the mice were fasted overnight before dosing and had free access to food 4 hr post dosing.
Sampling: The animal was restrained manually at the designated time points (0.083, 0.25, 0.5, 1, 2, 4, 6, 8 and 24 hr), approximately 110 μL of blood sample was collected via retro-orbital puncture or cardiac puncture for terminal bleeding under the anesthesia with Isoflurane inhalation into K2EDTA tubes. The blood samples were maintained in wet ice first and centrifuged to obtain plasma (2000 g, 4° C., 5 min) within 15 minutes post sampling. All the plasma samples were stored at approximately −70° C. until analysis.

IC50 ([1]; Homo sapiens, NCI-H929, 24 h)	IC50 [2]	IC50 ([1]; 24 h)	SMILES	IC50 ([3]; Homo sapiens, OPM-2, 24 h)	IC50 ([3]; 24 h)	further results
–	0.0042 µM	1.9 µM	CO[C@@H]1C2=CC(C2)CC(C)S(=O)(=O)NC(=O)c2ccc3c(c2)N(C[C@@H]2CC[C@H]21)C[C@@]1(CCCc2cc(Cl)ccc21)CO3 (single isomer, unassigned) [7 (Isomer 2)]	–	2.96 µM	–
–	0.0065 µM	0.086 µM	CO[C@H]1C2=CC(C2)CC(C)S(=O)(=O)NC(=O)c2ccc3c(c2)N(C[C@@H]2CC[C@H]21)C[C@@]1(CCCc2cc(Cl)ccc21)CO3 (single isomer, unassigned) [11 (Isomer 1)]	–	0.087 µM	–
–	0.006 µM	2.24 µM	CO[C@H]1C2=CC(C2)CC(C)S(=O)(=O)NC(=O)c2ccc3c(c2)N(C[C@@H]2CC[C@H]21)C[C@@]1(CCCc2cc(Cl)ccc21)CO3 (single isomer, unassigned) [11 (Isomer 2)]	–	3.86 µM	–
–	0.0048 µM	> 10 µM	CO[C@H]1C2=CC(C2)[C@@H](C)[C@H](C)S(=O)(=O)NC(=O)c2ccc3c(c2)N(C[C@@H]2CC[C@H]21)C[C@@]1(CCCc2cc(Cl)ccc21)CO3 (single isomer, unassigned) [12 (Isomer 1)]	17.2 µM	–	–
–	0.015 µM	4.6 µM	CO[C@H]1C2=CC(C2)[C@@H](C)[C@H](C)S(=O)(=O)NC(=O)c2ccc3c(c2)N(C[C@@H]2CC[C@H]21)C[C@@]1(CCCc2cc(Cl)ccc21)CO3 (single isomer, unassigned) [12 (Isomer 2)]	–	12.3 µM	–
–	0.014 µM	0.16 µM	CO[C@H]1C2=CC(C2)[C@H](C)N(C)S(=O)(=O)NC(=O)c2ccc3c(c2)N(C[C@@H]2CC[C@H]21)C[C@@]1(CCCc2cc(Cl)ccc21)CO3 (single isomer, unassigned) [26 (isomer 1)]	–	0.412 µM	–
–	0.0033 µM	2.26 µM	CO[C@H]1C2=CC(C2)[C@H](C)N(C)S(=O)(=O)NC(=O)c2ccc3c(c2)N(C[C@@H]2CC[C@H]21)C[C@@]1(CCCc2cc(Cl)ccc21)CO3 (single isomer, unassigned) [26 (isomer 2)]	–	2.24 µM	–
–	0.013 µM	1.6 µM	CO[C@@H]1C2=CC(C2)[C@H](C)N(C)S(=O)(=O)NC(=O)c2ccc3c(c2)N(C[C@@H]2CC[C@H]21)C[C@@]1(CCCc2cc(Cl)ccc21)CO3 (single isomer, unassigned) [27 (isomer 1)]	–	1.44 µM	–
–	0.0034 µM	5 µM	CO[C@@H]1C2=CC(C2)[C@H](C)N(C)S(=O)(=O)NC(=O)c2ccc3c(c2)N(C[C@@H]2CC[C@H]21)C[C@@]1(CCCc2cc(Cl)ccc21)CO3 (single isomer, unassigned) [27 (isomer 2)]	–	3.61 µM	–
2.9 µM	0.0062 µM	–	CO[C@H]1C2=C[C@H](C2)[C@H](C)N(C[C@@H]2CCCO2)S(=O)(=O)NC(=O)c2ccc3c(c2)N(C[C@@H]2CC[C@H]21)C[C@@]1(CCCc2cc(Cl)ccc21)CO3 (single isomer, unassigned) [30 (isomer 1)]	2.31 µM	–	–
4.7 µM	0.0051 µM	–	CO[C@H]1C2=C[C@H](C2)[C@H](C)N(C[C@H]2CCCO2)S(=O)(=O)NC(=O)c2ccc3c(c2)N(C[C@@H]2CC[C@H]21)C[C@@]1(CCCc2cc(Cl)ccc21)CO3 (single isomer, unassigned) [30 (isomer 2)]	4.77 µM	–	–
5.2 µM	0.014 µM	–	CO[C@H]1C2=C[C@@H](C2)[C@H](C)N(C[C@@H]2CCCO2)S(=O)(=O)NC(=O)c2ccc3c(c2)N(C[C@@H]2CC[C@H]21)C[C@@]1(CCCc2cc(Cl)ccc21)CO3 (single isomer, unassigned) [30 (isomer 3)]	6.1 µM	–	–

Continued, molecule first:

SMILES	IC50 ([1]; Homo sapiens, NCI-H929, 24 h)	IC50 [2]	IC50 ([1]; 24 h)	IC50 ([3]; Homo sapiens, OPM-2, 24 h)	IC50 ([3]; 24 h)	further results
CO[C@@H]1C2=CC(C2)CC(C)S(=O)(=O)NC(=O)c2ccc3c(c2)N(C[C@@H]2CC[C@H]21)C[C@@]1(CCCc2cc(Cl)ccc21)CO3 (mixture of isomers) [7 (mixture)]	2.3 µM	0.0051 µM	–	5.58 µM	–	–
CO[C@H]1C2=CC(C2)CC(C)S(=O)(=O)NC(=O)c2ccc3c(c2)N(C[C@@H]2CC[C@H]21)C[C@@]1(CCCc2cc(Cl)ccc21)CO3 (mixture of isomers) [11 (mixture)]	0.27 µM	0.0055 µM	–	0.967 µM	–	–
CO[C@@H]1C2=CC(C2)CC(C)S(=O)(=O)NC(=O)c2ccc3c(c2)N(C[C@@H]2CC[C@H]21)C[C@@]1(CCCc2cc(Cl)ccc21)CO3 (single isomer, unassigned) [7 (Isomer 1)]	–	0.0042 µM	0.6 µM	–	1.12 µM	–
CO[C@H]1C2=C[C@@H](C2)[C@H](C)[C@@H](C)S(=O)(=O)NC(=O)c2ccc3c(c2)N(C[C@@H]2CC[C@H]21)C[C@@]1(CCCc2c1ccc(Cl)c2F)CS3 (single isomer, unassigned) [22 (isomer 1)]	0.7 µM	0.013 µM	–	0.567 µM	–	–
CO[C@H]1C2=C[C@@H](C2)[C@H](C)CS(=O)(=O)NC(=O)c2ccc3c(c2)N(C[C@@H]2CC[C@H]21)C[C@@]1(CCCc2c1ccc(Cl)c2F)CS3 (single isomer, unassigned) [24 (isomer 1)]	0.66 µM	0.0064 µM	–	0.67 µM	–	–
CO[C@H]1C2=C[C@H](C2)[C@H](C)CS(=O)(=O)NC(=O)c2ccc3c(c2)N(C[C@@H]2CC[C@H]21)C[C@@]1(CCCc2c1ccc(Cl)c2F)CS3 (single isomer, unassigned) [24 (isomer 2)]	4.3 µM	0.0048 µM	–	3.3 µM	–	–
CO[C@H]1/C=C/C[C@H](C)[C@@H](C)S(=O)(=O)NC(=O)c2ccc3c(c2)N(C[C@@H]2CC[C@H]21)C[C@@]1(CCCc2cc(Cl)ccc21)CO3 [AMG-176, reference compound]	0.138 µM	–	–	0.335 µM	–	F ([4]; PO 10 mg/kg vs IV 2 mg/kg): 97.9%; AUC(0-inf) ([4]; mouse, plasma, IV 2 mg/kg): 7.45 µg·h/mL; AUC(0-t) ([4]; mouse, plasma, IV 2 mg/kg): 6.8 µg·h/mL; clearance ([4]; mouse, plasma, IV 2 mg/kg): 0.27 L/h/kg; half-life ([4]; mouse, plasma, IV 2 mg/kg): 7.2 h; Cmax ([4]; mouse, plasma, IV 2 mg/kg, read-out: C0/Cmax (C0)): 1.55 µg/mL; MRT last ([4]; mouse, plasma, IV 2 mg/kg): 6.3 h; Vd ([4]; mouse, plasma, IV 2 mg/kg, read-out: Vss): 2.3 L/kg; AUC(0-inf) ([4]; mouse, plasma, PO 10 mg/kg): 36.5 µg·h/mL; AUC(0-t) ([4]; mouse, plasma, PO 10 mg/kg): 32.7 µg·h/mL; Tmax ([4]; mouse, plasma, PO 10 mg/kg): 1 h; half-life ([4]; mouse, plasma, PO 10 mg/kg): 7.4 h; Cmax ([4]; mouse, plasma, PO 10 mg/kg, read-out: C0/Cmax (Cmax)): 2.5 µg/mL; MRT last ([4]; mouse, plasma, PO 10 mg/kg): 7.4 h; Vd/F ([4]; mouse, plasma, PO 10 mg/kg, read-out: Vz/F): 2.9 L/kg
CO[C@H]1C2CC(CCS(=O)(=O)NC(=O)c3ccc4c(c3)N(C[C@@H]3CC[C@H]31)C[C@@]1(CCCc3cc(Cl)ccc31)CO4)C2 [compound 2]	0.00604 µM	–	–	0.01 µM	–	–
